Experiments:
Assay in all cases: relative viability (nuclei count vs DMSO), 5 days (fraction); higher = more cells survive
[1] = test system: 201T
How it was run: (§1)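 Each reported value is a median over duplicate plates. It expresses relative viability: treated-well nuclei count divided by vehicle-well nuclei count. Lung cancer cell lines in 1536-well plates were dosed by pin tool a day after seeding, alone with one drug or with a fixed anchor-drug dose plus five library-drug doses (not always all listed) in √10 steps, and nuclei were counted after 5 days.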

[2] = test system: BEN
How it was run: as §1

[3] = test system: EPLC-272H
How it was run: as §1

[4] = test system: HCC-15
How it was run: as §1

[5] = test system: HCC-78
How it was run: as §1

[6] = test system: LCLC-97TM1
How it was run: as §1

[7] = test system: LU99A
How it was run: as §1

[8] = test system: NCI-H1355
How it was run: as §1

[9] = test system: NCI-H1395
How it was run: as §1

[10] = test system: NCI-H2009
How it was run: as §1

[11] = test system: NCI-H2085
How it was run: as §1

[12] = test system: NCI-H2126
How it was run: as §1

Molecule Cc1csc(=NC2CCCCC2)n1/N=C/c1ccc(O)c(O)c1O [MIM1] + CC(=O)c1c(C)c2cnc(Nc3ccc(N4CCNCC4)cn3)nc2n(C2CCCC2)c1=O [Palbociclib] (partner 0.5 µM) has a relative viability ([1]; first compound 0.2 µM) of 0.358, a relative viability ([1]; first compound 0.6325 µM) of 0.344 and a relative viability ([1]; first compound 2 µM) of 0.36. The relative viability ([1]; first compound 6.325 µM) was 0.327, the relative viability ([1]; first compound 20 µM) was 0.339 and the relative viability ([2]; first compound 0.2 µM) was 0.507. For the same molecule, the relative viability ([2]; first compound 0.6325 µM) was 0.466, the relative viability ([2]; first compound 2 µM) was 0.438 and the relative viability ([2]; first compound 6.325 µM) was 0.468. The relative viability ([2]; first compound 20 µM) was 0.407, the relative viability ([3]; first compound 0.2 µM) was 0.328 and the relative viability ([3]; first compound 0.6325 µM) was 0.332. The relative viability ([3]; first compound 2 µM) was 0.302, the relative viability ([3]; first compound 6.325 µM) was 0.279 and the relative viability ([3]; first compound 20 µM) was 0.149. It also gave a relative viability ([4]; first compound 0.2 µM) of 0.763, a relative viability ([4]; first compound 0.6325 µM) of 0.709 and a relative viability ([4]; first compound 2 µM) of 0.763. It also gave a relative viability ([4]; first compound 6.325 µM) of 0.433, a relative viability ([4]; first compound 20 µM) of 0.121 and a relative viability ([5]; first compound 0.2 µM) of 0.463. It also gave a relative viability ([5]; first compound 2 µM) of 0.494, a relative viability ([5]; first compound 6.325 µM) of 0.377 and a relative viability ([5]; first compound 20 µM) of 0.402. For the same molecule, the relative viability ([6]; first compound 0.2 µM) was 0.22, the relative viability ([6]; first compound 0.6325 µM) was 0.22 and the relative viability ([6]; first compound 2 µM) was 0.217. It also gave a relative viability ([6]; first compound 6.325 µM) of 0.169, a relative viability ([6]; first compound 20 µM) of 0.0835 and a relative viability ([7]; first compound 0.2 µM) of 0.404. It also gave a relative viability ([7]; first compound 0.6325 µM) of 0.405, a relative viability ([7]; first compound 2 µM) of 0.38 and a relative viability ([7]; first compound 6.325 µM) of 0.355. The relative viability ([7]; first compound 20 µM) was 0.159, the relative viability ([8]; first compound 0.2 µM) was 0.391 and the relative viability ([8]; first compound 0.6325 µM) was 0.371. The relative viability ([8]; first compound 2 µM) was 0.41, the relative viability ([8]; first compound 6.325 µM) was 0.385 and the relative viability ([8]; first compound 20 µM) was 0.288. For the same molecule, the relative viability ([9]; first compound 0.2 µM) was 0.583, the relative viability ([9]; first compound 0.6325 µM) was 0.6 and the relative viability ([9]; first compound 2 µM) was 0.596. For the same molecule, the relative viability ([9]; first compound 6.325 µM) was 0.579, the relative viability ([9]; first compound 20 µM) was 0.406 and the relative viability ([10]; first compound 0.2 µM) was 0.288. For the same molecule, the relative viability ([10]; first compound 0.6325 µM) was 0.266, the relative viability ([10]; first compound 2 µM) was 0.331 and the relative viability ([10]; first compound 6.325 µM) was 0.167. It also gave a relative viability ([10]; first compound 20 µM) of 0.122, a relative viability ([11]; first compound 0.2 µM) of 0.476 and a relative viability ([11]; first compound 0.6325 µM) of 0.466. It also gave a relative viability ([11]; first compound 2 µM) of 0.461, a relative viability ([11]; first compound 6.325 µM) of 0.482 and a relative viability ([11]; first compound 20 µM) of 0.537. It also gave a relative viability ([12]; first compound 0.2 µM) of 0.336, a relative viability ([12]; first compound 0.6325 µM) of 0.388 and a relative viability ([12]; first compound 2 µM) of 0.348.

— the supplement of paper PMC10307832
